Data from US7247634B2, “Rifamycin derivatives effective against drug-resistant microbes” (Cumbre Pharmaceuticals Inc., priority 2004, dated 2007).
≈ marks a conversion by molar mass, not a printed value.

What was measured:
Type in all cases: cell-based
[1] = tested on: Staphylococcus aureus ATCC29213; experiment: MIC, microbroth dilution (NCCLS); conditions: rifS strain, Cation-Adjusted Mueller-Hinton Broth, 37° C., read-out: Antimicrobial activity (MIC)
[2] = tested on: Staphylococcus aureus ATCC29213 rpoB^D417Y; experiment: microbe, parasite or virus in culture; conditions: ATCC29213, read-out: Antimicrobial activity (MIC)
Summary of the method: (§1)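 Tested organisms were S. aureus ATCC 29213 rpoB mutants (D417Y, H418Y; rifampin-resistant) and double gyrase/topoisomerase IV mutant EN1252a (quinolone-resistant). Growth in cation-adjusted Mueller-Hinton broth at 37 °C; MIC by microbroth dilution per NCCLS guidelines.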

[3] = tested on: Staphylococcus aureus ATCC29213 rpoB^H418Y; experiment: microbe, parasite or virus in culture; conditions: ATCC29213, read-out: Antimicrobial activity (MIC)
Summary of the method: as §1

[4] = tested on: Staphylococcus aureus EN1252a gyrA^S84L grlA^S80F; experiment: microbe, parasite or virus in culture; conditions: read-out: Antimicrobial activity (MIC)
Summary of the method: as §1

[5] = tested on: Staphylococcus epidermidis ATCC12228; experiment: MIC, microbroth dilution (NCCLS); conditions: rifS strain, Cation-Adjusted Mueller-Hinton Broth, 37° C., read-out: Antimicrobial activity (MIC)
[6] = tested on: Streptococcus pneumoniae ATCC6303; experiment: MIC, microbroth dilution (NCCLS); conditions: rifS strain, THY Broth with 1 mg/mL catalase, 5% CO2, 37° C., read-out: Antimicrobial activity (MIC)
[7] = tested on: Streptococcus pyogenes ATCC19615; experiment: MIC, microbroth dilution (NCCLS); conditions: rifS strain, THY Broth, 37° C., read-out: Antimicrobial activity (MIC)
[8] = tested on: Enterococcus faecalis ATCC29212; experiment: MIC, microbroth dilution (NCCLS); conditions: rifS strain, BHI Broth, 37° C., read-out: Antimicrobial activity (MIC)
[9] = tested on: Haemophilus influenzae ATCC10211; experiment: MIC, microbroth dilution (NCCLS); conditions: rifS strain, BHI Broth with NAD and hematin, 37° C., read-out: Antimicrobial activity (MIC)
[10] = tested on: Escherichia coli ATCC25922; experiment: MIC, microbroth dilution (NCCLS); conditions: rifS strain, Cation-Adjusted Mueller-Hinton Broth, 37° C., read-out: Antimicrobial activity (MIC)
[11] = tested on: Mycobacterium smegmatis ATCC700084; experiment: MIC, microbroth dilution (NCCLS); conditions: Mycolicibacterium smegmatis, rifS strain, Middlebrook Broth plus ADC Enrichment, 37° C., read-out: Antimicrobial activity (MIC)

For `COc1c(N2CC(NC3CCN(C4=C5NC(=O)/C(C)=C\C=C\[C@H](C)[C@H](O)[C@@H](C)[C@@H](O)[C@@H](C)[C@H](OC(C)=O)[C@H](C)[C@@H](OC)/C=C/O[C@@]6(C)Oc7c(C)c(O)c(c(c7C6=O)C4=O)C5=O)CC3)C2)c(F)cc2c(=O)c(C(=O)O)cn(C3CC3)c12` [Example 33, 3-{4-[1-(3-Carboxy-1-cyclopropyl-6-fluoro-8-methoxy-4-oxo-1,4-dihydroquinolin-7-yl)-azetidin-3-ylamino]-piperidin-1-yl}rifamycin S], the MIC [1] was 0.004 to 0.5 µg/mL (≈ 0.00356 to 0.445 µM), the MIC [2] was 0.06 to 32 µg/mL (≈ 0.0534 to 28.5 µM) and the MIC [3] was 0.06 to 16 µg/mL (≈ 0.0534 to 14.2 µM). For the same compound, the MIC [4] was 0.004 to 0.5 µg/mL (≈ 0.00356 to 0.445 µM), the MIC [5] was 0.008 to 0.063 µg/mL (≈ 0.00712 to 0.056 µM) and the MIC [6] was 0.008 to 0.125 µg/mL (≈ 0.00712 to 0.111 µM). It also gave an MIC [7] of 0.008 to 0.063 µg/mL (≈ 0.00712 to 0.056 µM), an MIC [8] of 2 to 32 µg/mL (≈ 1.78 to 28.5 µM) and an MIC [9] of 0.125 to 2 µg/mL (≈ 0.111 to 1.78 µM). It also gave an MIC [10] of 0.125 to 8 µg/mL (≈ 0.111 to 7.12 µM) and an MIC [11] of 0.5 to 64 µg/mL.

For `COc1c(N2CC3CCCN(C4CCN(C5=C6NC(=O)/C(C)=C\C=C\[C@H](C)[C@H](O)[C@@H](C)[C@@H](O)[C@@H](C)[C@H](OC(C)=O)[C@H](C)[C@@H](OC)/C=C/O[C@@]7(C)Oc8c(C)c(O)c(c(c8C7=O)C5=O)C6=O)CC4)C3C2)c(F)cc2c(=O)c(C(=O)O)cn(C3CC3)c12` (stereo partly drawn) [Example 35, 3-{4-[6-(3-Carboxy-1-cyclopropyl-6-fluoro-8-methoxy-4-oxo-1,4-dihydroquinolin-7-yl)-octahydro-pyrrolo[3,4-b]-pyrridin-1-yl]-piperidin-1-yl}rifamycin S], the MIC [1] was 0.004 to 0.5 µg/mL (≈ 0.00339 to 0.424 µM), the MIC [2] was 0.06 to 32 µg/mL (≈ 0.0509 to 27.2 µM) and the MIC [3] was 0.06 to 16 µg/mL (≈ 0.0509 to 13.6 µM). For the same compound, the MIC [4] was 0.004 to 0.5 µg/mL (≈ 0.00339 to 0.424 µM), the MIC [5] was 0.008 to 0.063 µg/mL (≈ 0.00679 to 0.0535 µM) and the MIC [6] was 0.008 to 0.125 µg/mL (≈ 0.00679 to 0.106 µM). The MIC [7] was 0.008 to 0.063 µg/mL (≈ 0.00679 to 0.0535 µM), the MIC [8] was 2 to 32 µg/mL (≈ 1.7 to 27.2 µM) and the MIC [9] was 0.125 to 2 µg/mL (≈ 0.106 to 1.7 µM). For the same compound, the MIC [10] was 0.125 to 8 µg/mL (≈ 0.106 to 6.79 µM) and the MIC [11] was 0.5 to 64 µg/mL.

In the case of `CO[C@H]1/C=C/O[C@@]2(C)Oc3c(C)c(O)c4c(c3C2=O)C(=O)C(N2CCC(N3CCN(c5c(F)cc6c(=O)c(C(=O)O)cn(C7CC7)c6c5Cl)CC3)CC2)=C(NC(=O)/C(C)=C\C=C\[C@H](C)[C@H](O)[C@@H](C)[C@@H](O)[C@@H](C)[C@H](OC(C)=O)[C@@H]1C)C4=O` [Example 38, 3-{4-[1-(3-Carboxy-8-chloro-1-cyclopropyl-6-fluoro-4-oxo-1,4-dihydroquinolin-7-yl)-piperazin-4-yl]-piperidin-1-yl}rifamycin S], the MIC [1] is reported as 0.004 to 0.5 µg/mL (≈ 0.0035 to 0.438 µM), the MIC [2] is reported as 0.06 to 32 µg/mL (≈ 0.0525 to 28 µM) and the MIC [3] is reported as 0.06 to 16 µg/mL (≈ 0.0525 to 14 µM). It also gave an MIC [4] of 0.004 to 0.5 µg/mL (≈ 0.0035 to 0.438 µM), an MIC [5] of 0.008 to 0.063 µg/mL (≈ 0.007 to 0.0551 µM) and an MIC [6] of 0.008 to 0.125 µg/mL (≈ 0.007 to 0.109 µM). It also gave an MIC [7] of 0.008 to 0.063 µg/mL (≈ 0.007 to 0.0551 µM), an MIC [8] of 2 to 32 µg/mL (≈ 1.75 to 28 µM) and an MIC [9] of 0.125 to 2 µg/mL (≈ 0.109 to 1.75 µM). It also gave an MIC [10] of 0.125 to 8 µg/mL (≈ 0.109 to 7 µM) and an MIC [11] of 0.5 to 64 µg/mL.

`COc1c(N2CCC(C(C)NC3CCN(C4=C5NC(=O)/C(C)=C\C=C\[C@H](C)[C@H](O)[C@@H](C)[C@@H](O)[C@@H](C)[C@H](OC(C)=O)[C@H](C)[C@@H](OC)/C=C/O[C@@]6(C)Oc7c(C)c(O)c(c(c7C6=O)C4=O)C5=O)CC3)C2)c(F)cc2c(=O)c(C(=O)O)cn(C3CC3)c12` (stereo partly drawn) [Example 39, 3-{4-[1-(3-Carboxy-1-cyclopropyl-6-fluoro-8-methoxy-4-oxo-1,4-dihydroquinolin-7-yl)-pyrrolidin-3-ylethylamino]-piperidin-1-yl}rifamycin S] showed an MIC [1] of 0.004 to 0.5 µg/mL (≈ 0.00343 to 0.429 µM), an MIC [2] of 0.06 to 32 µg/mL (≈ 0.0514 to 27.4 µM) and an MIC [3] of 0.06 to 16 µg/mL (≈ 0.0514 to 13.7 µM). It also gave an MIC [4] of 0.004 to 0.5 µg/mL (≈ 0.00343 to 0.429 µM), an MIC [5] of 0.008 to 0.063 µg/mL (≈ 0.00686 to 0.054 µM) and an MIC [6] of 0.008 to 0.125 µg/mL (≈ 0.00686 to 0.107 µM). The MIC [7] was 0.008 to 0.063 µg/mL (≈ 0.00686 to 0.054 µM), the MIC [8] was 2 to 32 µg/mL (≈ 1.71 to 27.4 µM) and the MIC [9] was 0.125 to 2 µg/mL (≈ 0.107 to 1.71 µM). The MIC [10] was 0.125 to 8 µg/mL (≈ 0.107 to 6.86 µM) and the MIC [11] was 0.5 to 64 µg/mL.

`COc1c(N2CCN(C(=O)C3CN(C4=C5NC(=O)/C(C)=C\C=C\[C@H](C)[C@H](O)[C@@H](C)[C@@H](O)[C@@H](C)[C@H](OC(C)=O)[C@H](C)[C@@H](OC)/C=C/O[C@@]6(C)Oc7c(C)c(O)c(c(c7C6=O)C4=O)C5=O)C3)CC2)c(F)cc2c(=O)c(C(=O)O)cn(C3CC3)c12` [Example 45, 3-{3-[4-(3-Carboxy-1-cyclopropyl-6-fluoro-8-methoxy-4-oxo-1,4-dihydroquinolin-7-yl)-piperazin-1-yl-carbonyl]-azetidin-1-yl}rifamycin S] showed an MIC [1] of 0.004 to 0.5 µg/mL (≈ 0.00351 to 0.439 µM), an MIC [2] of 0.06 to 32 µg/mL (≈ 0.0527 to 28.1 µM) and an MIC [3] of 0.06 to 16 µg/mL (≈ 0.0527 to 14.1 µM). The MIC [4] was 0.004 to 0.5 µg/mL (≈ 0.00351 to 0.439 µM), the MIC [5] was 0.008 to 0.063 µg/mL (≈ 0.00703 to 0.0554 µM) and the MIC [6] was 0.008 to 0.125 µg/mL (≈ 0.00703 to 0.11 µM). It also gave an MIC [7] of 0.008 to 0.063 µg/mL (≈ 0.00703 to 0.0554 µM), an MIC [8] of 2 to 32 µg/mL (≈ 1.76 to 28.1 µM) and an MIC [9] of 0.125 to 2 µg/mL (≈ 0.11 to 1.76 µM). It also gave an MIC [10] of 0.125 to 8 µg/mL (≈ 0.11 to 7.03 µM) and an MIC [11] of 0.5 to 64 µg/mL.

In the case of `COc1c(N2CC(NC(=O)C3CN(C4=C5NC(=O)/C(C)=C\C=C\[C@H](C)[C@H](O)[C@@H](C)[C@@H](O)[C@@H](C)[C@H](OC(C)=O)[C@H](C)[C@@H](OC)/C=C/O[C@@]6(C)Oc7c(C)c(O)c(c(c7C6=O)C4=O)C5=O)C3)C2)c(F)cc2c(=O)c(C(=O)O)cn(C3CC3)c12` [Example 47, 3-{3-[1-(3-Carboxy-1-cyclopropyl-6-fluoro-8-methoxy-4-oxo-1,4-dihydroquinolin-7-yl)-azetidin-3-ylcarbamoyl]-azetidin-1-yl}rifamycin S], the MIC [1] is reported as 0.004 to 0.5 µg/mL (≈ 0.00356 to 0.445 µM), the MIC [2] is reported as 0.06 to 32 µg/mL (≈ 0.0534 to 28.5 µM) and the MIC [3] is reported as 0.06 to 16 µg/mL (≈ 0.0534 to 14.2 µM). For the same compound, the MIC [4] was 0.004 to 0.5 µg/mL (≈ 0.00356 to 0.445 µM), the MIC [5] was 0.008 to 0.063 µg/mL (≈ 0.00712 to 0.056 µM) and the MIC [6] was 0.008 to 0.125 µg/mL (≈ 0.00712 to 0.111 µM). For the same compound, the MIC [7] was 0.008 to 0.063 µg/mL (≈ 0.00712 to 0.056 µM), the MIC [8] was 2 to 32 µg/mL (≈ 1.78 to 28.5 µM) and the MIC [9] was 0.125 to 2 µg/mL (≈ 0.111 to 1.78 µM). For the same compound, the MIC [10] was 0.125 to 8 µg/mL (≈ 0.111 to 7.12 µM) and the MIC [11] was 0.5 to 64 µg/mL.
